Results from patent US10759816B2, “Heterocyclic compounds as RSV inhibitors” (Enanta Pharmaceuticals, Inc., priority 2016, dated 2020).
pEC50: −log10 of the molar value.

Tested on: genotype A, "Long" strain RSV
Assay: RSV-A in vitro cytoprotection assay in HEp-2 cells (ATPlite readout of cell viability)
Format: cell-based, Human respiratory syncytial virus
Settings: human respiratory syncytial virus, HEp-2
In short: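 HEp-2 cells (8,000/well) given 2-fold compound dilutions in duplicate, then infected with RSV-A Long strain stock; viability read by ATPlite luminescence after 4 days. EC50 derived from cytoprotection; cytotoxicity measured on parallel uninfected plate.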

In the case of `O=C(Nc1ccccc1F)N[C@H]1N=C(c2ccccc2)c2ccccc2NC1=O` [RSV-604, reference compound], the pEC50 was ~5.62.

Same assay, conditions: human respiratory syncytial virus, HEp-2, HEp-2 cells, genotype A “Long” strain RSV, cytoprotection; read-out: Human RSV-A (“Long” strain) EC50

Compared with `O=C(NC1CC(F)(F)C1)c1cc2c(s1)-c1ccccc1N(C(=O)c1cccc(-c3c[nH]nc3C3CC3)n1)CC2` [Example 179], `CS(=O)(=O)N1CC(NC(=O)c2cc3c(s2)-c2ccccc2N(C(=O)c2cccc(-c4c[nH]nc4C4CC4)n2)CC3)C1` [Example 184] is lower in pEC50: > 6.40 for the first, < 6.10 for the second. The first is the more potent here.

Compared with `Cc1cccc(F)c1NC(=O)c1cc2c(s1)-c1ccccc1N(C(=O)c1cccc(N(C)C3CCOCC3)n1)CC2` [Example 362], `Cc1cccc(F)c1NC(=O)c1cc2c(s1)-c1ccccc1N(C(=O)c1cccc(N(C)CCN)n1)CC2` [Example 371] is lower in pEC50: > 6.40 for the first, 6.10 to 6.40 for the second. The first is the more potent here.

First: Cc1cccc(F)c1NC(=O)c1cc2c(s1)-c1ccccc1N(C(=O)c1cccc(-c3cn(CC(N)=O)nc3C3CC3)n1)CC2 [Example 230]
Second: CCOC(=O)n1cc(-c2cccc(C(=O)N3CCc4cc(C(=O)Nc5c(C)cccc5F)sc4-c4ccccc43)n2)c(C2CC2)n1 [Example 224]
The pEC50 of the first is lower: < 6.10 for the first, > 6.40 for the second.

First: Cc1cccc(F)c1NC(=O)c1cc2c(s1)-c1ccccc1N(C(=O)c1cccc(N3CCC4C(C3)C4(F)F)n1)CC2 (centres unmarked) [Example 374]
Second: Cc1cccc(F)c1NC(=O)c1cc2c(s1)-c1ccccc1N(C(=O)c1cccc(N3CCCC(F)(F)CC3)n1)CC2 [Example 403]
The pEC50 of the first is lower: 6.10 to 6.40 for the first, > 6.40 for the second. The second is the more potent here.

First: O=C(NC1CC1)c1cc2c(s1)-c1ccccc1N(S(=O)(=O)c1cccc(N3CCCOCC3)n1)CC2 [Example 102]
Second: O=C(NC1CC1)c1cc2c(s1)-c1ccccc1N(C(=O)c1ccnc(N3CCCOCC3)n1)CC2 [Example 52]
The pEC50 of the first is lower: < 6.10 for the first, 6.10 to 6.40 for the second.

First: Cc1cccc(F)c1NC(=O)c1cc2c(s1)-c1ccccc1N(C(=O)c1cccc(-n3ccnc3C3CCC3)n1)CC2 [Example 147]
Second: COc1ccn(-c2cccc(C(=O)N3CCc4cc(C(=O)Nc5c(C)cccc5F)sc4-c4ccccc43)n2)c(=O)c1 [Example 415]
The pEC50 of the first is higher: > 6.40 for the first, < 6.10 for the second. The first is the more potent here.

`COc1ccc(-c2cccc(C(=O)N3CCc4cc(C(=O)NCC5CC5)sc4-c4ccccc43)n2)cn1` [Example 96] and `COc1ccc(-c2cccc(C(=O)N3CCc4cc(C(=O)N(C)C)sc4-c4ccccc43)n2)cn1` [Example 95] fall in the same range of pEC50: 6.10 to 6.40 for the first, 6.10 to 6.40 for the second.

Compared with `CC(=O)N1CCN(c2cccc(C(=O)N3CCc4cc(C(=O)NC5CC5)sc4-c4ccccc43)n2)CC1` [Example 20], `O=C(NC1CC1)c1cc2c(s1)-c1ccccc1N(C(=O)c1cccc(N3CCc4ccccc4CC3)n1)CC2` [Example 31] is lower in pEC50: 6.10 to 6.40 for the first, < 6.10 for the second.

`COC(=O)n1cc(-c2cccc(C(=O)N3CCc4cc(C(=O)Nc5c(C)cccc5F)sc4-c4ccccc43)n2)c(C2CC2)n1` [Example 214] and `Cc1cccc(F)c1NC(=O)c1cc2c(s1)-c1ccccc1N(C(=O)c1cccc(-c3cn(C(=O)C(C)C)nc3C3CC3)n1)CC2` [Example 225] cannot be ordered by pEC50: > 6.40 for the first, > 6.40 for the second.

`COc1ccccc1CN(C)c1cccc(C(=O)N2CCc3cc(C(=O)Nc4c(C)cccc4F)sc3-c3ccccc32)n1` [Example 341] and `Cc1cccc(F)c1NC(=O)c1cc2c(s1)-c1ccccc1N(C(=O)c1cccc(N(C)Cc3ccccn3)n1)CC2` [Example 337] cannot be ordered by pEC50: > 6.40 for the first, > 6.40 for the second.

`O=C(NC1CC1)c1cc2c(s1)-c1ccccc1N(C(=O)c1cccc(CN3CCOCC3)c1)CC2` [Example 2] and `O=C(NC1CC1)c1cc2c(s1)-c1ccccc1N(C(=O)c1ccc3nc(N4CCOCC4)oc3c1)CC2` [Example 10] cannot be ordered by pEC50: < 6.10 for the first, < 6.10 for the second.

Compared with `Cc1cccc(F)c1NC(=O)c1cc2c(s1)-c1ccccc1N(C(=O)c1cccc(-c3cn(C(=O)OC(C)(C)C)c4c(Cl)cccc34)n1)CC2` [Example 250], `Cc1cccc(F)c1NC(=O)c1cc2c(s1)-c1ccccc1N(C(=O)c1cccc(-c3coc4ccncc34)n1)CC2` [Example 258] is lower in pEC50: 6.10 to 6.40 for the first, < 6.10 for the second.

`Cc1cccc(F)c1NC(=O)c1cc2c(s1)-c1ccccc1N(C(=O)c1cccc(N3CCN(C4CC4)S(=O)(=O)CC3)n1)CC2` [Example 448] and `Cc1cccc(F)c1NC(=O)c1cc2c(s1)-c1ccccc1N(C(=O)c1cccc(N3CCCC(C)(O)CC3)n1)CC2` (centres unmarked) [Example 444] cannot be ordered by pEC50: > 6.40 for the first, > 6.40 for the second.

`Cc1cccc(F)c1NC(=O)c1cc2c(s1)-c1ccccc1N(C(=O)c1ccc(NC(=O)N3CCCOCC3)cc1)CC2` [Example 131] and `Cc1cccc(F)c1NC(=O)c1cc2c(s1)-c1ccccc1N(C(=O)c1ccc(NC(=O)NCCN3CCOCC3)cc1)CC2` [Example 129] cannot be ordered by pEC50: < 6.10 for the first, < 6.10 for the second.

`Cc1cccc(F)c1NC(=O)c1cc2c(s1)-c1ccccc1N(C(=O)c1cccc(N3C[C@@H]4C[C@H]3CO4)n1)CC2` [Example 430] and `Cc1cccc(F)c1NC(=O)c1cc2c(s1)-c1ccccc1N(C(=O)c1cccc(N3C[C@H](O)C[C@@H]3C)n1)CC2` [Example 480] cannot be ordered by pEC50: > 6.40 for the first, > 6.40 for the second.

`Cc1cccc(F)c1NC(=O)c1cc2c(s1)-c1ccccc1N(C(=O)c1cccc(N3C(=O)OC[C@H]3c3ccccc3)n1)CC2` [Example 424] and `Cc1cccc(F)c1NC(=O)c1cc2c(s1)-c1ccccc1N(C(=O)c1cccc(N3CCC[C@@H]3Cc3ccccc3)n1)CC2` [Example 486] cannot be ordered by pEC50: < 6.10 for the first, < 6.10 for the second.

First: CNC(=O)c1cc2c(s1)-c1ccccc1N(C(=O)c1cccc(N3CCCOCC3)n1)CC2 [Example 98]
Second: O=C(NC1CC1)c1cc2c(o1)-c1ccccc1N(C(=O)c1cccc(N3CCCOCC3)n1)CC2 [Example 106]
The pEC50 of the first is higher: > 6.40 for the first, 6.10 to 6.40 for the second. The first is the more potent here.

First: Cc1cccc(F)c1NC(=O)c1cc2c(s1)-c1ccccc1N(C(=O)c1cccc(N(C)Cc3cccc(-c4ccccc4)c3)n1)CC2 [Example 352]
Second: Cc1cccc(F)c1NC(=O)c1cc2c(s1)-c1ccccc1N(C(=O)c1cccc(N(C)Cc3ccc4ccccc4c3)n1)CC2 [Example 354]
The pEC50 of the first is higher: 6.10 to 6.40 for the first, < 6.10 for the second.

`COc1ccccc1[C@H](C)Nc1cccc(C(=O)N2CCc3cc(C(=O)NC4CC4)sc3-c3ccccc32)n1` [Example 292] and `COc1ccc(CN(C)c2cccc(C(=O)N3CCc4cc(C(=O)NC5CC5)sc4-c4ccccc43)n2)cc1` [Example 294] cannot be ordered by pEC50: < 6.10 for the first, < 6.10 for the second.

First: O=C(NC1CC1)c1cc2c(s1)-c1ccccc1N(C(=O)c1cccc(-c3cnc(N4CCOCC4)c(F)c3)n1)CC2 [Example 92]
Second: O=C(NC1CC1)c1cc2c(s1)-c1ccccc1N(C(=O)c1cccc(-c3cccc(N4CCOCC4)c3)n1)CC2 [Example 67]
The pEC50 of the first is higher: 6.10 to 6.40 for the first, < 6.10 for the second. The first is the more potent here.

First: Cc1cccc(F)c1NC(=O)c1cc2c(s1)-c1ccccc1N(C(=O)c1cccc(N(C)CCNC(=O)OC(C)(C)C)n1)CC2 [Example 370]
Second: Cc1cccc(F)c1NC(=O)c1cc2c(s1)-c1ccccc1N(C(=O)c1cccc(NCCO)n1)CC2 [Example 329]
The pEC50 of the first is higher: 6.10 to 6.40 for the first, < 6.10 for the second.

First: O=C(NC1CC1)c1cc2c(s1)-c1ccccc1N(C(=O)c1cccc(-c3ccc(F)nc3)n1)CC2 [Example 81]
Second: CN(C)c1ccc(-c2cccc(C(=O)N3CCc4cc(C(=O)NC5CC5)sc4-c4ccccc43)n2)cn1 [Example 82]
The pEC50 of the first is higher: 6.10 to 6.40 for the first, < 6.10 for the second.

`Nc1cccc2c1C(=O)N(c1cccc(C(=O)N3CCc4cc(C(=O)NC5CC5)sc4-c4ccccc43)n1)C2` [Example 413] and `O=C(NC1CC1)c1cc2c(s1)-c1ccccc1N(C(=O)c1cccc(-c3ccnc4ccccc34)n1)CC2` [Example 152] cannot be ordered by pEC50: < 6.10 for the first, < 6.10 for the second.

`Cc1cccc(F)c1NC(=O)c1cc2c(s1)-c1ccccc1N(C(=O)c1cccc(N3CC4CCC(C4)C3)n1)CC2` [Example 443] and `Cc1cccc(F)c1NC(=O)c1cc2c(s1)-c1ccccc1N(C(=O)c1cccc(N3CC(S(C)(=O)=O)C3)n1)CC2` [Example 441] cannot be ordered by pEC50: < 6.10 for the first, < 6.10 for the second.

`Cc1cnc2[nH]cc(-c3cccc(C(=O)N4CCc5cc(C(=O)Nc6c(C)cccc6F)sc5-c5ccccc54)n3)c2c1` [Example 245] and `Cc1cccc(F)c1NC(=O)c1cc2c(s1)-c1ccccc1N(C(=O)c1cccc(-c3cnn4ccccc34)n1)CC2` [Example 244] cannot be ordered by pEC50: > 6.40 for the first, > 6.40 for the second.

Going from `COc1ccc(-c2cccc(C(=O)N3CCc4cc(C(=O)Nc5ccccc5)sc4-c4ccccc43)n2)cn1` [Example 168] to `CC(C)n1nccc1-c1cccc(C(=O)N2CCc3cc(C(=O)Nc4ccccc4N)sc3-c3ccccc32)n1` [Example 241], the pEC50 rises from < 6.10 to > 6.40. The second is the more potent here.

`Cc1cccc(F)c1NC(=O)c1cc2c(s1)-c1ccccc1N(C(=O)c1cccc(NC3CS(=O)(=O)C3)n1)CC2` [Example 440] and `Cc1cccc(F)c1NC(=O)c1cc2c(s1)-c1ccccc1N(C(=O)c1cccc(NC3CCS(=O)(=O)C3)n1)CC2` (centres unmarked) [Example 438] cannot be ordered by pEC50: > 6.40 for the first, > 6.40 for the second.

`COc1ccc2c(c1)OCCN(c1cccc(C(=O)N3CCc4cc(C(=O)Nc5c(C)cccc5F)sc4-c4ccccc43)n1)C2` [Example 366] and `Cc1cccc(F)c1NC(=O)c1cc2c(s1)-c1ccccc1N(C(=O)c1cccc(N3CCOc4c(F)cccc4C3)n1)CC2` [Example 365] cannot be ordered by pEC50: > 6.40 for the first, > 6.40 for the second.

`O=C(NC1CC1)c1ccc2c(c1)-c1ccccc1N(C(=O)c1cccc(N3CCCOCC3)n1)CC2` [Example 104] and `O=C(NC1CC1)c1cc2c(s1)-c1ccccc1N(C(=O)c1cccc(-c3cnn(C4CCOC4)c3)n1)CC2` (centres unmarked) [Example 159] cannot be ordered by pEC50: < 6.10 for the first, < 6.10 for the second.

Compared with `Cc1cccc(F)c1NC(=O)c1cc2c(s1)-c1ccccc1N(C(=O)c1ccc(-c3c[nH]c4ncccc34)cc1)CC2` [Example 266], `Cc1cccc(F)c1NC(=O)c1cc2c(s1)-c1ccccc1N(C(=O)c1cccc(N[C@H](CO)c3ccccc3)n1)CC2` [Example 502] is higher in pEC50: < 6.10 for the first, > 6.40 for the second. The second is the more potent here.

First: Cc1cccc(F)c1NC(=O)c1cc2c(s1)-c1ccccc1N(C(=O)c1cccc(-c3cnn(CCN(C)C)c3C3CC3)n1)CC2 [Example 229]
Second: Cc1cccc(F)c1NC(=O)c1cc2c(s1)-c1ccccc1N(C(=O)c1cccc(-c3cnn(S(=O)(=O)C4CC4)c3C3CC3)n1)CC2 [Example 222]
The pEC50 of the first is lower: < 6.10 for the first, 6.10 to 6.40 for the second. The second is the more potent here.

Compared with `Cc1cccc(F)c1NC(=O)c1cc2c(s1)-c1ccc(F)cc1N(C(=O)c1cccc(N3C[C@@H](O)C[C@@H]3C)n1)CC2` [Example 493], `Cc1cnc(N2CC3(CCCOC3)C2)c(NC(=O)c2ccc(C(=O)N3CCc4cc(C(=O)Nc5c(C)cccc5F)sc4-c4ccccc43)cc2)c1` [Example 138] is lower in pEC50: > 6.40 for the first, < 6.10 for the second. The first is the more potent here.
